Laboratory results: patent publication US12091425B2 (AMGEN INC., priority 2016, dated 2024)

How the values were obtained:
[1] = system: OPM-2 human multiple myeloma cell line; assay: Cell Viability Assay (OPM-2 10 FBS); format: cell-based; conditions: OPM-2 cells, CellTiter-Glo
Method in brief: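 IC50 from 4-parameter logistic fit of CellTiter-Glo luminescence. 3000 cells/well, 10% FBS medium, serial compound dilutions, 16 h, 37 °C/5% CO2; read 25 min post-reagent.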

[2] = target: T1, Mcl-1/Bim interaction, recombinant human Mcl-1 (171-327) (Homo sapiens, UniProt Q07820); assay: Cell free Mcl-1: Bim Affinity Assay (Mcl-1 HTRF); format: binding
T1 construct: made in house
Method in brief: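 Read-out is time-resolved FRET after overnight incubation, using a biotin-labelled peptide from human Bim (51-76) as the binding partner; IC50 was derived from competition curves.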

[3] = Homo sapiens, OPM-2, 16 h, 16 h
[4] = TR-FRET, 0.1 nM Mcl-1 (171-327), 0.05 nM biotin-Bim (51-76)
[5] = cell free Mcl-1:Bim TR-FRET, recombinant human Mcl-1 (171-327)
[6] = Homo sapiens, OPM-2, 16 h, 16 h incubation

T1 sequence (Q07820 171-327): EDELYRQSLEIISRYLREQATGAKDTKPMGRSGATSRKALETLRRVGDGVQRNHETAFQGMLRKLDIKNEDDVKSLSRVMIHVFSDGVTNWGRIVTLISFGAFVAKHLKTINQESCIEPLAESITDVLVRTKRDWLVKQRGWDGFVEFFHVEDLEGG

Structure (SMILES) | IC50 [1, 3] [nM] | IC50 [2, 4] [nM] | other results
CCN1[C@H](C)C/C=C/[C@H](O)[C@@H]2CC[C@H]2CN2C[C@@]3(CCCc4cc(Cl)ccc43)COc3ccc(cc32)C(=O)NS1(=O)=O [Example 59, (1S,3′R,6′R,7′S,8′E,11R)-6-chloro-12′-ethyl-7′-hydroxy-11′-methyl-3,4-dihydro-2H,15′H-spiro[naphthalene-1,22′-[20]oxa[13]thia[1,12,14]triazatetracyclo[14.7.2.0^3,6.0^19,24]pentacosa[8,16,18,24]tetraen]-15′-one 13′,13′-dioxide] | 7450 | 4.27 | –
C[C@@]12C/C=C/[C@H](O)[C@@H]3CC[C@H]3CN3C[C@@]4(CCCc5cc(Cl)ccc54)COc4ccc(cc43)C(=O)NS(=O)(=O)[C@H]1CCC2 (single isomer, unassigned) [Example 130] | – | 0.386 | IC50 ([1]; 16 h): 228 nM
COCCO[C@H]1/C=C/C[C@H]2COC[C@@H]2S(=O)(=O)NC(=O)c2ccc3c(c2)N(C[C@@H]2CC[C@H]21)C[C@@]1(CCCc2cc(Cl)ccc21)CO3 (single isomer, unassigned) [Example 1034] | – | 4.04 | IC50 ([1]; 16 h incubation): 8050 nM
COCCCN1[C@@H](C)C/C=C/[C@H](O)[C@@H]2CC[C@H]2CN2C[C@@]3(CCCc4cc(Cl)ccc43)COc3ccc(cc32)C(=O)NS1(=O)=O (single isomer, unassigned) [Example 72] | 445 | 0.324 | –
CCN1[C@H](C)C/C=C\[C@H](O)[C@@H]2CC[C@H]2CN2C[C@@]3(CCCc4cc(Cl)ccc43)COc3ccc(cc32)C(=O)NS1(=O)=O (single isomer, unassigned) [Example 60] | – | 4.08 | IC50 ([1]; 16 h): 2690 nM
CC(C)OC(=O)CC1C(C)CC=CC(O)C2CCC2CN2CC3(CCCc4cc(Cl)ccc43)COc3ccc(cc32)C(=O)NS1(=O)=O (single isomer, unassigned) [Example 567] | – | – | IC50 ([1]; 16 h): 4510 nM; IC50 [2, 5]: 3.69 nM
COCC[C@H]1/C=C/[C@H](OC)[C@@H]2CC[C@H]2CN2C[C@@]3(CCCc4cc(Cl)ccc43)COc3ccc(cc32)C(=O)NS(=O)(=O)[C@H](C)C1 [Example 204, (1S,3′R,6′R,7′S,8′E,10′R,12′R)-6-chloro-7′-methoxy-10′-(2-methoxyethyl)-12′-methyl-3,4-dihydro-2H,15′H-spiro[naphthalene-1,22′-[20]oxa[13]thia[1,14]diazatetracyclo[14.7.2.0^3,6.0^19,24]pentacosa [8,16,18,24]tetraen]-15′-one 13′,13′-dioxide] | 686 | 0.732 | –
CCN1[C@@H](C)C/C=C/[C@H](O)[C@@H]2CC[C@H]2CN2C[C@@]3(CCCc4cc(Cl)ccc43)COc3ccc(cc32)C(=O)NS1(=O)=O (single isomer, unassigned) [Example 57] | 555 | 0.491 | –
C[C@H]1C/C=C\[C@H](O)[C@@H]2CC[C@H]2CN2C[C@@]3(CCCc4cc(Cl)ccc43)COc3ccc(cc32)C(=O)NS(=O)(=O)N1C[C@@H]1CCCO1 (single isomer, unassigned) [Example 50] | 2210 | 3.62 | –

The next lines start with results.

IC50 [1, 3] [nM] | IC50 [2, 4] [nM] | Structure (SMILES) | other results
196 | 0.223 | C[C@@H]1[C@@H](C)C/C=C/[C@H](OCc2ncccn2)[C@@H]2CC[C@H]2CN2C[C@@]3(CCCc4cc(Cl)ccc43)COc3ccc(cc32)C(=O)NS1(=O)=O [Example 317, (1S,3′R,6′R,7′S,8′E,11′S,12′R)-6-chloro-11′,12′-dimethyl-7′-(2-pyrimidinylmethoxy)-3,4-dihydro-2H,15′H-spiro[naphthalene-1,22′-[20]oxa[13]thia[1,14]diazatetracyclo[14.7.2.0^3,6.0^19,24]pentacosa [8,16,18,24]tetraen]-15′-one 13′,13′-dioxide] | –
69.7 | – | CC(=O)N1CCN(CCO[C@H]2/C=C/C[C@H](C)[C@@H](C)S(=O)(=O)NC(=O)c3ccc4c(c3)N(C[C@@H]3CC[C@H]32)C[C@@]2(CCCc3cc(Cl)ccc32)CO4)CC1 [Example 733, (1S,3′R,6′R,7′S,8′E,11′S,12′R)-7′-(2-(4-acetyl-1-piperazinyl)ethoxy)-6-chloro-11′,12′-dimethyl-3,4-dihydro-2H,15′H-spiro[naphthalene-1,22′-[20]oxa[13]thia[1,14]diazatetracyclo [14.7.2.0^3,6.0^19,24]pentacosa[8,16,18,24]tetraen]-15′-one-13′, 13′-dioxide] | IC50 [2, 5]: 0.284 nM
941 | 2.1 | CC[C@@H]1CC/C=C/[C@H](OC(C)=O)[C@@H]2CC[C@H]2CN2C[C@@]3(CCCc4cc(Cl)ccc43)COc3ccc(cc32)C(=O)NS1(=O)=O [Example 426, (1S,3′R,6′R,7′S,8′E,12′R)-6-chloro-12′-ethyl-13′,13′-dioxido-15′-oxo-3,4-dihydro-2H-spiro[naphthalene-1,22′-[20]oxa[13]thia[1,14]diazatetracyclo[14.7.2.0^3,6.0^19,24]pentacosa [8,16,18,24]tetraen]-7′-yl acetate] | –
– | 0.339 | COCCO[C@H]1/C=C/[C@H](C)C[C@@H](C)S(=O)(=O)NC(=O)c2ccc3c(c2)N(C[C@@H]2CC[C@H]21)C[C@@]1(CCCc2cc(Cl)ccc21)CO3 [Example 1017, (1S,3′R,6′R,7′S,8′E,10′R,12′R)-6-chloro-7′-(2-methoxyethoxy)-10′,12′-dimethyl-3,4-dihydro-2H,15′H-spiro[naphthalene-1,22′-[20]oxa[13]thia[1,14]diazatetracyclo[14.7.2.0^3,6.0^19,24]pentacosa [8,16,18,24]tetraen]-15′-one 13′,13′-dioxide] | IC50 [1, 6]: 310 nM
– | 0.0197 | C[C@@H]1[C@@H](C)S(=O)(=O)NC(=O)c2ccc3c(c2)N(C[C@@H]2CC[C@H]2[C@@H](OCC(=O)O)/C=C/[C@@H]1C)C[C@@]1(CCCc2cc(Cl)ccc21)CO3 [Example 1051, (((1S,3′R,6′R,7′S,8′E,10′S,11′S,12′R)-6-chloro-10′,11′,12′-trimethyl-13′,13′-dioxido-15′-oxo-3,4-dihydro-2H-spiro[naphthalene-1,22′-[20]oxa[13]thia[1,14]diazatetracyclo[14.7.2.0^3,6.0^19,24]pentacosa [8,16,18,24]tetraen]-7′-yl)oxy)acetic Acid] | IC50 [1, 6]: 1900 nM
– | 0.403 | CC[C@@H]1CC/C=C/[C@H](OCc2nccn2C)[C@@H]2CC[C@H]2CN2C[C@@]3(CCCc4cc(Cl)ccc43)COc3ccc(cc32)C(=O)NS1(=O)=O [Example 965, (1S,3′R,6′R,7′S,8′E,12′R)-6-chloro-12′-ethyl-7′-((1-methyl-1H-IMIDAZOL-2-yl)methoxy)-3,4-dihydro-2H,15′H-spiro[naphthalene-1,22′-[20]oxa[13]thia[1,14]diazatetracyclo[14.7.2.0^3,6.0^19,24]pentacosa [8,16,18,24]tetraen]-15′-one 13′,13′-dioxide] | IC50 [1, 6]: 693 nM
27600 | 0.36 | C[C@@H]1[C@@H](C)C/C=C/[C@H](OCC(=O)O)[C@@H]2CC[C@H]2CN2C[C@@]3(CCCc4cc(Cl)ccc43)COc3cc(CC(=O)O)c(cc32)C(=O)NS1(=O)=O [Example 293, ((1S,3′R,6′R,7′S,8′E,11′S,12′R)-7′-(carboxymethoxy)-6-chloro-11′,12′-dimethyl-13′,13′-dioxido-15′-oxo-3,4-dihydro-2H-spiro[naphthalene-1,22′-[20]oxa[13]thia[1,14]diazatetracyclo[14.7.2.0^3,6.0^19,24]pentacosa [8,16,18,24]tetraen]-17′-yl)acetic acid] | –
